This is an account of results in US20260256814A1, “COMBINATION FOR THE TREATMENT OF INFECTIONS CAUSED BY MYCOPLASMA GENITALIUM” (GLAXOSMITHKLINE INTELLECTUAL PROPERTY DEVELOPMENT LIMITED, priority 2019, published 2026).

The test system of assay [1] is Mycoplasma genitalium. As to the kind of experiment: Determination of minimum inhibitory concentration (MIC) by the Vero-cell culture method, growth by qPCR. The class given is cell-based. Here is the method: A collection of 54 Mycoplasma genitalium isolates originating from 51 patients were tested. Thirty-one strains were macrolide-resistant, with azithromycin MICs of ≥16 μg/mL and mutations in 23S rRNA gene positions A2058 (n=17) or A2059 (n=14, E. coli numbering). Eighteen strains were moxifloxacin-resistant (MIC≥1 μg/ml); 17 had dual resistance and were resistant to both moxifloxacin and azithromycin.
Gepotidacin minimal inhibitory concentrations (MICs) were determined by the Vero-cell culture method for all 54 isolates and minimal bactericidal concentrations (MBCs) against 44 Mycoplasma genitalium strains. Gepotidacin, azithromycin, doxycycline, and moxifloxacin MICs were determined by inoculating 5000 genome equivalents (geq) as determined by quantitative PCR (qPCR) into a Vero-cell culture containing two-fold dilutions of test-antibiotic (Hamasuna et al., Antimicrob. Agents Chemother 49, 4993-4998 (2005)). After a three-week incubation period, cells and supernatant were harvested and growth of Mycoplasma genitalium was determined by qPCR. MIC was defined as the minimal concentration of the test-antibiotic causing a 99% inhibition of growth when compared to the mean of the control cultures grown without antibiotic.
(Quantitative PCR measures a nucleic acid by following its amplification.)

In assay [2] the test system is Mycoplasma genitalium. As to the kind of experiment: Determination of minimum bactericidal concentration (MBC), Vero-cell culture, qPCR. The class given is cell-based. Conditions: Mycoplasmoides genitalium, read-out: median MBC. The protocol:
After incubation for MIC determination, 15 μl of culture medium was transferred from the MIC plate to 135 μl fresh Vero-cell suspension, resulting in a 10-fold dilution of gepotidacin. Plates were sealed and incubated for four weeks and Mycoplasma genitalium growth was subsequently determined by qPCR. MBC was defined as the minimal concentration of the test-antibiotic causing a 99% inhibition of growth when compared to the mean of the control culture wells grown without antibiotic.

The test system of assay [3] is Mycoplasma genitalium. The note with it: alternative treatment of Mycoplasma genitalium infection; cited from earlier work.
Where [4] appears, read: Mycoplasmoides genitalium, all 54 isolates (36 moxifloxacin-susceptible and 18 moxifloxacin-resistant), Vero-cell culture, 99% inhibition of growth, read-out: MIC50.
[5] abbreviates: Mycoplasmoides genitalium, all 54 isolates, Vero-cell culture, read-out: MIC90.
[6] abbreviates: all 54 isolates, Vero-cell culture.
Where [7] appears, read: 18 moxifloxacin-resistant isolates.
Setting [8] is: 36 moxifloxacin-susceptible isolates.

Usually MIC50 stands for the lowest concentration that inhibits either 50% of growth or 50% of the strains tested, depending on the study. The MIC90 is the lowest concentration that inhibits either 90% of growth or 90% of the strains tested, depending on the study. The MBC is the smallest concentration meeting the test's criterion for killing.

Converted amounts (≈) assume the structure as drawn. Read-outs that look alike come from different tables or passages of the source.

As to `CC[C@H]1OC(=O)[C@H](C)[C@@H](O[C@H]2C[C@@](C)(OC)[C@@H](O)[C@H](C)O2)[C@H](C)[C@@H](O[C@@H]2O[C@H](C)C[C@H](N(C)C)[C@H]2O)[C@](C)(O)C[C@@H](C)CN(C)[C@H](C)[C@@H](O)[C@]1(C)O` [Azithromycin, reference compound], the MIC in the assay with Mycoplasma genitalium [1] (Mycoplasmoides genitalium, read-out: MICs, 31 macrolide-resistant strains (23S rRNA A2058 or A2059 mutations)) was at least 16 µg/mL. For the same molecule, the MIC50 with Mycoplasma genitalium [1] (setting [4]) stood at 16 µg/mL (≈ 21.4 µM). Further, the MIC90 in the assay with Mycoplasma genitalium [1] (setting [5]) and against Mycoplasma genitalium [1] (setting [6]) was above 64 µg/mL in each case.

As to `C[C@H]1c2cccc(O)c2C(=O)C2=C(O)[C@]3(O)C(=O)C(C(N)=O)=C(O)[C@@H](N(C)C)[C@@H]3[C@@H](O)[C@@H]21` [Doxycycline, reference compound], in the assay with Mycoplasma genitalium [1] (setting [4]), the MIC50 came out at 0.5 µg/mL (≈ 1.13 µM). The MIC90 in the assay with Mycoplasma genitalium [1] (setting [5]) turned out to be 1 µg/mL (≈ 2.25 µM). Further, the MIC range against Mycoplasma genitalium [1] (setting [6]) was in the range of 0.06 to 2 µg/mL.

Take `O=c1ccc2ncc(=O)n3c2n1C[C@H]3CN1CCC(NCc2cc3c(cn2)OCCC3)CC1` [Gepotidacin, (2R)-2-({4-[(3,4-dihydro-2/pyrano[2,3-c]pyridin-6-ylmethyl)amino]-1-piperidinyl}methyl)-1,2-dihydro-3H,8/2a,5,8a-triazaacenaphthylene-3,8-dione]: the MIC90 with Mycoplasma genitalium [1] (setting [7]), with Mycoplasma genitalium [1] (setting [8]), in the assay on Mycoplasma genitalium [1] (Mycoplasmoides genitalium) and against Mycoplasma genitalium [1] (setting [6]) was 0.25 µg/mL (≈ 0.557 µM) in each case. In addition, the MIC range is at most 0.016 to 0.5 µg/mL in the assay on Mycoplasma genitalium [1] (setting [7]), 0.032 to 0.5 µg/mL in the assay on Mycoplasma genitalium [1] (setting [8]), at most 0.016 to 0.5 µg/mL against Mycoplasma genitalium [1] (all 54 isolates) and at most 0.016 to 0.5 µg/mL against Mycoplasma genitalium [1] (setting [6]). Moreover, the “median MIC” value with Mycoplasma genitalium [1] (44 isolates for which MBCs were available) was 0.064 µg/mL. In the assay on Mycoplasma genitalium [1] (54 isolates, p=0.2), the “difference in MIC between fluoroquinolone-, dual-resistant and -susceptible isolates” value is recorded as “no difference”. Moreover, the “difference in MIC between macrolide-resistant and -susceptible isolates” value in the assay with Mycoplasma genitalium [1] (54 isolates, p=0.24) was “no difference”. Also, the MIC50 in the assay on Mycoplasma genitalium [1] (Mycoplasmoides genitalium, 18 moxifloxacin-resistant isolates) stood at 0.064 µg/mL (≈ 0.143 µM); with Mycoplasma genitalium [1] (Mycoplasmoides genitalium, 36 moxifloxacin-susceptible isolates), 0.125 µg/mL (≈ 0.279 µM); in the assay with Mycoplasma genitalium [1] (Mycoplasmoides genitalium, all 54 isolates (36 moxifloxacin-susceptible and 18 moxifloxacin-resistant), Vero-cell culture, 99% inhibition of growth) it was 0.125 µg/mL (≈ 0.279 µM). The MIC with Mycoplasma genitalium [1] (Mycoplasmoides genitalium, read-out: median MIC, 44 isolates for which MBCs were available) was found to be 0.064 µg/mL (≈ 0.143 µM); in the assay on Mycoplasma genitalium [1] (Mycoplasmoides genitalium, read-out: median MIC, all 54 isolates), 0.125 µg/mL (≈ 0.279 µM); in the assay with Mycoplasma genitalium [1] (Mycoplasmoides genitalium, read-out: modal MIC, all 54 isolates), 0.125 µg/mL (≈ 0.279 µM). For the same molecule, the “cross-resistance to the tested comparators” value with Mycoplasma genitalium [1] (all isolates incl. fluoroquinolone- and macrolide-resistant) was “no cross-resistance”. Besides, in the assay with Mycoplasma genitalium [2], the MBC came to 0.125 µg/mL (≈ 0.279 µM).

In the assay with Mycoplasma genitalium [1] (Mycoplasmoides genitalium), `COc1c(N2C[C@@H]3CCCN[C@@H]3C2)c(F)cc2c(=O)c(C(=O)O)cn(C3CC3)c12` [Moxifloxacin, reference compound] yielded an MIC of at least 1 µg/mL, an MIC50 of 0.25 µg/mL (≈ 0.623 µM) and an MIC90 of 4 µg/mL (≈ 9.96 µM). The MIC90 against Mycoplasma genitalium [1] (setting [6]) turned out to be 4 µg/mL (≈ 9.96 µM).

For pristinamycin, the effective in the assay on Mycoplasma genitalium [3] was 80%.
